Values quoted from earlier work in patent US20210299077A1, “LIPOSOMAL REDUCED GLUTATHIONE (LRG) IN COMBINATION WITH IVERMECTIN FOR THE TREATMENT OF COVID-19” (Your Energy Systems, LLC, priority 2020, published 2021).
Read-outs that look alike come from different tables or passages of the source.

Columns and labels:
influenza viruses = conditions: 300 mg twice a day for 5 days
[1] = patients receiving remdesivir
SARS-CoV [2] = conditions: mouse SARS-CoV model
COVID-19 = COVID-19 patients
[3] = single oral dose of 2000 mg
SARS-CoV [4] = conditions: in vitro studies

CC(=O)Oc1ccccc1C(=O)Nc1ncc([N+](=O)[O-])s1 [NTZ, Nitazoxanide]
symptoms and infectious viral load (influenza viruses): reduction of symptoms and infectious viral load | tolerability (influenza viruses): well tolerated

CCC(CC)COC(=O)[C@H](C)N[P@](=O)(OC[C@H]1O[C@@](C#N)(c2ccc3c(N)ncnn23)[C@H](O)[C@@H]1O)Oc1ccccc1 [Remdesivir]
adverse events [1]: nausea, vomiting, rectal bleeding, and elevated liver enzymes

CCN(CC)CCCC(C)Nc1ccnc2cc(Cl)ccc12 (stereo not shown) [chloroquine]
efficacy in inhibiting viral replication (SARS-CoV [2]): did not show efficacy | clinical and virologic outcome versus a comparison group (COVID-19): clinical and virologic benefit

CCN(CCO)CCCC(C)Nc1ccnc2cc(Cl)ccc12 (stereo not shown) [hydroxychloroquine]
in-vitro activity against SARS-CoV-2 (SARS-CoV-2): relatively higher potency against SARS-CoV-2

O=C(Nc1ccc([N+](=O)[O-])cc1Cl)c1cc(Cl)ccc1O [niclosamide]
maximum serum concentration [3]: 0.25 to 6.0 µg/mL | maximum serum concentration ([3]; same range in μM): 0.76 to 18.3 µM | inhibition of SARS-CoV replication (SARS-CoV [4]): able to inhibit SARS-CoV replication at a micromolar concentration | aqueous solubility: limited aqueous solubility
